≈ marks a conversion by molar mass, not a printed value.
Assays:
[1] = test system: Diplococcus pneumoniae IID 552; test: Antibacterial activity in vitro, M.I.C., agar dilution streak method; type: cell-based; details: Gram +
[2] = test system: Staphylococcus aureus 209P; test: as above; type: cell-based; details: Gram +
Escherichia coli = test: Concentration ratio in serum to M.I.C. after oral administration of 50 mg/kg in rats; type: in vivo, Escherichia coli; rats; details: rat, in vivo, po, 50 mg/kg
[3] = test system: gram-positive and gram-negative bacteria including Pseudomonas aeruginosa; test: Antibacterial spectrum in vitro (summary in words); type: cell-based
[4] = test system: Streptococcus pyogenes IID 692; test: Antibacterial activity in vitro, M.I.C., agar dilution streak method; type: cell-based; details: Gram +
[5] = test system: Escherichia coli NIHJ JC-2; test: Preventive effect against ascending kidney infection in mice with Escherichia coli; type: in vivo, Escherichia coli; mice (ddY, female); details: Escherichia coli, NIHJJC2, 48 h, oral, 3 hours after inoculation, challenge 3.2 × 10^7 cells/mouse
Description: Ascending kidney infection was induced in female mice (strain: ddY, 6 weeks old, body weight: 22-26g), by instilling Escherlichia coli NIHJ JC-2 suspended in 0.04 ml of Tryptosoya broth (Nissan) into the urinary tract of mice anesthetized with sodium pentobarbital and by holding for 6 hours the mice in plastic tubes (diameter 25 mm) and clamping the outlet of urinary tract.
Each of these test material was orally administered 3 hours after inoculation. Mice were sacrificed 48 hours after inoculation. Kidneys were removed aseptically and bisected, and the two halves were pressed and streaked on agar plate containing Desoxycholate medium (Nissan). The therapeutic effect of each compound was evaluated from the absence of growth on the agar surface after 20 hours of incubation at 37° C.

Ps. aeruginosa IFO 12689 = test: Antibacterial activity in vitro, M.I.C., agar dilution streak method; type: cell-based, Pseudomonas aeruginosa; details: Gram -
Ps. aeruginosa IID 1130 = test: as above; type: cell-based, Pseudomonas aeruginosa; details: Gram -
Shigella sonnei IID 969 = test: as above; type: cell-based; details: Gram -
[6] = test system: Bacillus subtilis PCI 219; test: as above; type: cell-based; details: Gram +
[7] = test system: Klebsiella pneumoniae IFO 3512; test: as above; type: cell-based
[8] = Biliary excretion in rats after a single oral administration of 50 mg/kg; details: rat, in vivo, po, 50 mg/kg
My. smegmatis IFO 3083 = test: Antibacterial activity in vitro, M.I.C., agar dilution streak method; type: cell-based; details: Gram +
[9] = test system: Mycobacterium phlei IFO 3142; test: as above; type: cell-based; details: Gram +
[10] = test system: Pseudomonas aeruginosa IID 1210; test: Preventive effect against systemic infection with Pseudomonas aeruginosa in mice; type: in vivo, Pseudomonas aeruginosa; mice (ddY, male); details: Pseudomonas aeruginosa, IID1210, oral, challenge 3.5 × 10^4 cells/mouse
Description: Systemic infection was produced by inoculating male mice (strain: ddY, 6 weeks old, body weight: 28-33g) in intraperitoneally with Pseudomonas aeruginosa IID 1210 suspended in 0.5 ml of Brain heart infusion broth (Eiken) containing 5% mucin. […] Each of these test materials was administered to the mice twice, immediately after and then 6 hours after the inoculation, and the therapeutic effect of each compounds was judged from the survival rate.
(1) Miller L. C. and M. L. Tainter: Estimation of the ED50 and its error by means of logarithmic-probit graph paper Proc. Soc. Exp. Biol. Med. 57 261-264 (1944)
(2) Litchfield J. T. and F. Wilcoxon: A simplified method of evaluating dose - effect J. Pharmacol. 92 99-113 (1948)

[11] = test system: Escherichia coli NIHJ JC-2; test: Influence of rat bile on antibacterial activity; type: cell-based; details: bile of rats
Description: Nutrient agar was heated and melted. […] The diameter of the inhibition zone was measured.

Pr. vulgaris XK Denken = test: Antibacterial activity in vitro, M.I.C., agar dilution streak method; type: cell-based, Proteus vulgaris; details: Gram -
[12] = test system: Proteus vulgaris IFO 3167; test: as above; type: cell-based; details: Gram -
[13] = test system: Corynebacterium pyogenes IID 548; test: as above; type: cell-based; details: Gram +
Str. pyogenes S-8 = test: as above; type: cell-based, Streptococcus pyogenes; details: Gram +
Ps. aeruginosa IID 1210 = test: as above; type: cell-based, Pseudomonas aeruginosa; details: Gram -
[14] = test system: Salmonella enteritidis IID 604; test: as above; type: cell-based; details: Gram -
[15] = test system: Pseudomonas aeruginosa V-1; test: as above; type: cell-based; details: Gram -
[16] = test system: Haemophilus influenzae IID 986; test: as above; type: cell-based; details: Gram -
Escherichia coli NIHJ = test: as above; type: cell-based
[17] = test system: Neisseria perflava IID 856; test: as above; type: cell-based
Sta. aureus ATCC 14775 = test: as above; type: cell-based, Staphylococcus aureus; details: Gram +
E. coli ATCC 10536 = test: as above; type: cell-based, Escherichia coli
Str. faecalis IID 682 = test: as above; type: cell-based; details: Gram +

Compound: CCn1cc(C(=O)O)c(=O)c2cnc(N3CCNCC3)nc21 [Pipemidic acid]
- MIC ([1]; Streptococcus pneumoniae, IID552, read-out: M.I.C.): > 100 µg/mL
- MIC ([2]; Staphylococcus aureus, 209P, read-out: M.I.C.): 25 µg/mL (≈ 82.4 µM)
- serum concentration / M.I.C. ratio (in words) (Escherichia coli): smaller than that of the compound (II)
- time for which serum levels were maintained (Escherichia coli): ≤ 2 h
- antibacterial activity (in words) [3]: inactive on many strains of gram-positive bacteria and many Pseudomonas aeruginosa strains
- MIC ([4]; Streptococcus pyogenes, IID692, read-out: M.I.C.): > 100 µg/mL
- ED50 ([5]; read-out: ED50 (95% confidence limit)): 74 mg/kg
- ED90 ([5]; read-out: ED90): 235 mg/kg
- MIC (Ps. aeruginosa IFO 12689; Pseudomonas aeruginosa, IFO12689, read-out: M.I.C.): 25 µg/mL (≈ 82.4 µM)
- MIC (Ps. aeruginosa IID 1130; Pseudomonas aeruginosa, IID1130, read-out: M.I.C.): 25 µg/mL (≈ 82.4 µM)
- MIC (Shigella sonnei IID 969; Shigella sonnei, IID969): 1.56 µg/mL (≈ 5.14 µM)
- MIC ([6]; Bacillus subtilis, PCI219, read-out: M.I.C.): 6.25 µg/mL (≈ 20.6 µM)
- MIC ([7]; Klebsiella pneumoniae, IFO3512): 1.56 µg/mL (≈ 5.14 µM)
- concentration at 3 h [8]: 27400 ± 2600 ng/mL
- concentration at 6 h [8]: 22600 ± 1700 ng/mL
- concentration at 24 h [8]: 10200 ± 1200 ng/mL
- concentration at 27 h [8]: < 2000 ng/mL
- dose excreted at 3 h [8]: 0.6 ± 0.07%
- dose excreted at 6 h [8]: 1.01 ± 0.1%
- dose excreted at 24 h [8]: 1.97 ± 0.09%
- dose excreted at 27 h [8]: 1.97 ± 0.09%
- MIC (My. smegmatis IFO 3083; Mycolicibacterium smegmatis, IFO3083, read-out: M.I.C.): 50 µg/mL (≈ 165 µM)
- MIC ([9]; Mycolicibacterium phlei, IFO3142, read-out: M.I.C.): 12.5 µg/mL (≈ 41.2 µM)
- ED50 ([10]; twice (immediately and 6 hours after inoculation), read-out: ED50 (95% confidence limit)): 400 mg/kg
- ED90 ([10]; twice, read-out: ED90): 1120 mg/kg
- antibacterial activity in presence of bile (in words) [11]: not influenced by bile of rats
- MIC (Pr. vulgaris XK Denken; Proteus vulgaris, read-out: M.I.C.): 6.25 µg/mL (≈ 20.6 µM)
- MIC ([12]; Proteus vulgaris, IFO3167, read-out: M.I.C.): 3.13 µg/mL (≈ 10.3 µM)
- MIC ([13]; Corynebacterium pyogenes, IID548): 100 µg/mL
- MIC (Str. pyogenes S-8; Streptococcus pyogenes, S8, read-out: M.I.C.): > 100 µg/mL
- MIC (Ps. aeruginosa IID 1210; Pseudomonas aeruginosa, IID1210, read-out: M.I.C.): 50 µg/mL (≈ 165 µM)
- MIC ([14]; Salmonella enterica, read-out: M.I.C.): 12.5 µg/mL (≈ 41.2 µM)
- MIC ([15]; Pseudomonas aeruginosa, V1, read-out: M.I.C.): 12.5 µg/mL (≈ 41.2 µM)
- MIC ([16]; Haemophilus influenzae, IID986, read-out: M.I.C.): 3.13 µg/mL (≈ 10.3 µM)
- MIC (Escherichia coli NIHJ; Escherichia coli): 1.56 µg/mL (≈ 5.14 µM)
- MIC ([17]; Neisseria perflava, IID856): 1.56 µg/mL (≈ 5.14 µM)
- MIC (Sta. aureus ATCC 14775; Staphylococcus aureus, ATCC14775, read-out: M.I.C.): 100 µg/mL (≈ 330 µM)
- MIC (E. coli ATCC 10536; Escherichia coli, ATCC10536): 1.56 µg/mL (≈ 5.14 µM)

Compound: Gentamicin
- M.I.C. [1]: 12.5 µg/mL
- M.I.C. [2]: 0.10 µg/mL
- M.I.C. [4]: 6.25 µg/mL
- M.I.C. (Ps. aeruginosa IFO 12689): 12.5 µg/mL
- M.I.C. (Ps. aeruginosa IID 1130): 3.13 µg/mL
- M.I.C. (Shigella sonnei IID 969): 0.78 µg/mL
- M.I.C. [6]: 0.10 µg/mL
- M.I.C. ([7]; Gram -): 0.20 µg/mL
- M.I.C. (My. smegmatis IFO 3083): 0.20 µg/mL
- M.I.C. [9]: 6.25 µg/mL
- M.I.C. (Pr. vulgaris XK Denken): 0.10 µg/mL
- M.I.C. [12]: 0.20 µg/mL
- M.I.C. [13]: 0.78 µg/mL
- M.I.C. (Str. pyogenes S-8): 6.25 µg/mL
- M.I.C. (Ps. aeruginosa IID 1210): 12.5 µg/mL
- M.I.C. [14]: 1.56 µg/mL
- M.I.C. [15]: 0.78 µg/mL
- M.I.C. [16]: 1.56 µg/mL
- M.I.C. (Escherichia coli NIHJ; Gram -): 0.39 µg/mL
- M.I.C. ([17]; Gram -): 0.78 µg/mL
- M.I.C. (Sta. aureus ATCC 14775): 0.10 µg/mL
- M.I.C. (E. coli ATCC 10536; Gram -): 0.39 µg/mL
- M.I.C. (Str. faecalis IID 682): 50 µg/mL

— patent publication US4146719A, “Piperazinyl derivatives of quinoline carboxylic acids” (priority 1977, dated 1979)
